Literature values in PMC11904481 (ESMO Open, 2025).
Several values for one entry are separate records, joined by “and”; a condition that tells them apart may be missing. Equal entries are not always repeated.

System: patients
Conditions: cited from earlier work; for diarrhea / nausea: patients treated with oral ERK inhibitor
[1] = ocular TEAE, oral ERK inhibitor

Row | SMILES | diarrhea | nausea [%] | blurred vision [1] [%] | oropharyngeal pain (oral ERK inhibitor) [%] | retinopathy [1] [%] | patients with dose reductions due to toxicity (phase I clinical trial, oral) [%]
1 | Cc1cnc(NC2CCOCC2)nc1-n1cnc(C(=O)N[C@H](CN)c2cc(F)cc(Cl)c2)c1 [ASN007] | 30% | 30 | – | – | – | –
2 | Cn1nccc1Nc1nccc(-c2ccn([C@H](CO)c3ccc(Cl)c(F)c3)c(=O)c2)n1 [GDC-0994, (S)-1-(1-(4-chloro-3-fluorophenyl)-2-hydroxyethyl)-4-(2-((1-methyl-1H-pyrazol-5-yl)amino)pyrimidin-4-yl)pyridin-2(1H)-one] | 49% | 32 | 13 | – | – | –
3 | Cn1nccc1Nc1nccc(-c2cc3c(s2)C(C)(C)N(CCN2CCOCC2)C3=O)n1 [LY3214996] | – | – | 15 | – | – | –
4 | CS[C@@]1(C(=O)Nc2ccc3[nH]nc(-c4ccc(OC(C)C)nc4)c3c2)CCN(CC(=O)N2CC=C(c3ccc(-c4ncn(C)n4)cc3)CC2)C1 [MK-8353] | > 40% and 44% | 28 | 8 | 8 | – | –
5 | CC(C)Nc1cc(-c2c[nH]c(C(=O)N[C@H](CO)c3cccc(Cl)c3)c2)c(Cl)cn1 [ulixertinib] | > 40% and 48% | 42 | – | – | 14 | 32
